Among the data in patent US5834257A, “α-agarase and production process of oligosaccharides and monosaccharides” (Japan Tobacco Inc., priority 1995, dated 1998) are Km and maximum velocity values, retold here.

This assay relates to α-NAOS hydrolase (α-agarase) derived from Vibrio sp. JT0107-L4, N-terminal sequence SEQ ID NO:2. In words: Michaelis constant and maximum velocity by Lineweaver-Burk plot, neoagarobiose degradation measured by HPLC. Particulars: substrate neoagarobiose, 20 mM potassium phosphate buffer pH 7.8, 30° C. It counts as biochemical. The protocol:
The activity determination of purified or partially purified products of this enzyme is conducted as follows. After an enzyme reaction with neoagarobiose as the substrate, the amount of degraded neoagarobiose is calculated from the amount of intact neoagarobiose which is determined by HPLC. Details are as follows. A 0.1% solution of neoagarobiose dissolved in 20 mM potassium phosphate buffer (pH 7.8) is prepared. This solution, as the substrate, in a volume of 90 μl was mixed with 10 μl of the enzyme solution. The mixed solution is incubated at 30° C. for 5 to 30 minutes, preferably for 10 minutes; the reaction is stopped by heating in boiling water for 1 minute. This reaction solution in a volume of 10 μl is applied to a column, Capcell pak C-18 (manufactured by Shiseido) which is of 4.5 mm in internal diameter and 250 mm in length, and eluted at a flow rate of 1 ml/min using water as the eluent; the amount of neoagarobiose not degraded by the enzyme reaction, which has a retention time of about 4.5 minutes, is quantified. The amount of degraded neoagarobiose is calculated inversely from the value in this measurement, assuming that the amount of enzyme degrading 1 μmol neoagarobiose per minute is 1 U. Neoagarobiose consisting of 3,6-anhydro-L-galactose and D-galactose through α-1,3 bond was used as the substrate. Various substrate solutions of different concentration were prepared. […]

A word on the Km: it is the concentration of substrate that gives half-maximal velocity. In the case of `OC[C@H]1OC(O)[C@H](O)[C@@H](O[C@@H]2O[C@H]3CO[C@@H]([C@@H]2O)[C@@H]3O)[C@H]1O` (some centres unmarked) [Neoagarobiose], the Km amounted to 4.28 ± 5 mM. Besides, under “1 U = 1 μmol neoagarobiose degraded per minute”, the maximum velocity was 87 U/mg-protein.
